# Assay results as given in US7510836B2, “Alpha arteether resistance domain” (priority 2003, dated 2009).
# How the values were obtained:
# Assay type in all cases: cell-based, Escherichia coli
# [1] = test system: gyr mutant strains of E.coli; test: Arteether sensitivity of gyr mutants; conditions: gyr mutants DH5a, NK5819, MTCC 482, CA8000 gyrA mutants
# Procedure: To ascertain the involvement of gyrA mutation, another E.coli strain NK 5819 which is also GyrA″ and nalidixic acid resistant was tested for arteether sensitivity. As expected, strain NK5819 was also sensitive only to a-isomer of arteether. […] The assays for arteether sensitivity was performed by the standard single disk diffusion method (Bauer et al, 1966). As a next step, we isolated gyrA mutants of E.coli strain CA 8000, which is otherwise Gyr+ and nalidixic acid sensitive. The gyrA mutants of CA8000 were isolated as nalidixic acid resistant colonies (20 ug/ml), after mutagenic treatment with NTG ([…]). The isolated CA8000 gyrA mutants were also sensitive only to a isomer of arteether. […] To define precisely the involvement of gyr genes only in the a-arteether sensitivity, we utilised two recombinant clones (pMK 90 and pMK47 containing functional gyr A and gyrB genes respectively) in trans-complementation assays. For this purpose, we mobilized the plasmid clones into the E.coli gyr mutant strains. The resulting transformants were now nalidixic acid sensitive and a-arteether resistant. This constituted the direct evidence supporting our observation that DNA gyrase enzyme alone is involved in conferring a-arteether sensitivity to E.coli strain. […] DNA gyrase enzyme is essential for the bacterial growth. […]
# E. coli mutant CA8007 = test: Disc diffusion, zone of inhibition; conditions: 250 μg/disc, Luria agar
# Procedure: (§1) To ascertain the involvement of gyrA mutation, another E.coli strain NK 5819 which is also GyrA″ and nalidixic acid resistant was tested for arteether sensitivity. As expected, strain NK5819 was also sensitive only to a-isomer of arteether. […] The assays for arteether sensitivity was performed by the standard single disk diffusion method (Bauer et al, 1966). As a next step, we isolated gyrA mutants of E.coli strain CA 8000, which is otherwise Gyr+ and nalidixic acid sensitive. The gyrA mutants of CA8000 were isolated as nalidixic acid resistant colonies (20 ug/ml), after mutagenic treatment with NTG ([…]). The isolated CA8000 gyrA mutants were also sensitive only to a isomer of arteether. […] To define precisely the involvement of gyr genes only in the a-arteether sensitivity, we utilised two recombinant clones (pMK 90 and pMK47 containing functional gyr A and gyrB genes respectively) in trans-complementation assays. For this purpose, we mobilized the plasmid clones into the E.coli gyr mutant strains. The resulting transformants were now nalidixic acid sensitive and a-arteether resistant. This constituted the direct evidence supporting our observation that DNA gyrase enzyme alone is involved in conferring a-arteether sensitivity to E.coli strain. […] DNA gyrase enzyme is essential for the bacterial growth. This enzyme transiently breaks the DNA strands and introduces negative superhelical turns in an ATP-dependent process. The E.coli DNA gyrase enzyme is a tetramer with two subunits A and B. These two subunits are nalidixic acid and coumermycin sensitive respectively (U.S. Pat. No. 6,127,405 and a co-pending patent).
# (§2) In order to develop an arteether resistant mutants from an arteether sensitive strains a reverse strategy was applied. Quinoline/fluoroquinolone (Q/FQs) resistant strains were developed spontaneously i.e. screening overnight log phase culture of the Quinolone/fluoroquinolone sensitive i.e. arteether resistant strain (E coli CA 8000) on the poison agar plate of the Q/FQs. The Q/FQ resistant mutants which appeared on the poison agar plates were first purified through single colony purification and then checked for their arteether sensitivity. These arteether sensitive mutants on the contrary when checked for their Q/Fqs resistance they show different level of Q/FQs resistance.
# (§3) The strains of E coli mutants were grown on Luria agar medium and beta-arteether (250 μg/disc) was applied on disc. The clear zone around the disc killing the bacteria is called Zone of Inhibition (ZOI). This is the measure of sensitivity of the strain towards the compound […].
# E. coli mutant CA8006 = test: Disc diffusion, zone of inhibition; conditions: 250 μg/disc, Luria agar
# Procedure: as §1, §2, §3
# E. coli mutant CA8002 = test: Disc diffusion, zone of inhibition; conditions: 250 μg/disc, Luria agar
# Procedure: as §1, §2, §3
# E. coli mutant CA8010 = test: Disc diffusion, zone of inhibition; conditions: 250 μg/disc, Luria agar
# Procedure: as §1, §2, §3
# E. coli mutant CA8012 = test: Disc diffusion, zone of inhibition; conditions: 250 μg/disc, Luria agar
# Procedure: as §1, §2, §3
# E. coli mutant CA8009 = test: Disc diffusion, zone of inhibition; conditions: 250 μg/disc, Luria agar
# Procedure: as §1, §2, §3
# E. coli mutant CA8003 = test: Disc diffusion, zone of inhibition; conditions: 250 μg/disc, Luria agar
# Procedure: as §1, §2, §3
# E. coli mutant CA8001 = test: Disc diffusion, zone of inhibition; conditions: 250 μg/disc, Luria agar
# Procedure: as §1, §2, §3
# E. coli DH5 α (gyrA−) = test: Disc diffusion, zone of inhibition; conditions: 250 μg/disc, Luria agar
# Procedure: as §1, §3
# E. coli NK5819 (gyrA−) = test: Disc diffusion, zone of inhibition; conditions: 250 μg/disc, Luria agar
# Procedure: as §1, §3
# E. coli ET8000 (gyrA−) = test: Disc diffusion, zone of inhibition; conditions: 250 μg/disc, Luria agar
# Procedure: as §1, §3
structure (smiles),measurement,setting,value
CCO[C@H]1O[C@@H]2O[C@@]3(C)CC[C@H]4[C@H](C)CC[C@@H]([C@H]1C)[C@@]24OO3 [beta-arteether],Sensitivity,[1],none of the above described gyr mutants were sensitive
same,Net ZOI in mm,E. coli mutant CA8007,8 mm
same,Net ZOI in mm,E. coli mutant CA8006,11 mm
same,Net ZOI in mm,E. coli mutant CA8002,5 mm
same,Net ZOI in mm,E. coli mutant CA8010,10 mm
same,Net ZOI in mm,E. coli mutant CA8012,8 mm
same,Net ZOI in mm,E. coli mutant CA8009,14 mm
same,Net ZOI in mm,E. coli mutant CA8003,9 mm
same,Net ZOI in mm,E. coli mutant CA8001,10 mm
same,Net ZOI in mm,E. coli DH5 α (gyrA−),5 mm
same,Net ZOI in mm,E. coli NK5819 (gyrA−),7 mm
same,Net ZOI in mm,E. coli ET8000 (gyrA−),5 mm
